Assay results from patent US20130136809A1, “7-HYRDROXYFRULLANOLIDE ITS ANALOGS FOR PREVENTION CONTROL AND TREATMENT OF METABOLIC DISORDERS” (LAILA NUTRACEUTICALS, priority 2009, published 2013).

Key:
[1] = system: 3T3-L1 pre-adipocyte cells; assay: Inhibition of lipid accumulation in differentiated adipocytes (Oil Red O); assay type: cell-based, mouse; settings: 3T3-L1 adipocytes; for inhibition at 2.5 µg/mL: 2.5 μg/mL
Method: One hundred thousand 3T3-L1 […] pre-adipocyte cells in Dulbecco's Modified Eagles Medium (DMEM) containing 10% Fetal Bovine Serum (FBS) were taken into each well of a 24-well plate and incubated for 48 h at 37° C. and 5% CO2. The differentiation of pre-adipocyte cells was initiated in a differentiation medium containing 10 μg/ml insulin, 1.0 μM dexamethasone, and 0.5 mM isobutylmethylxanthine (IBMX) for 48 h. After this the medium was replaced by DMEM containing 10 ug/ml insulin and incubated for 3 days. Then the differentiating cells were treated with […] of 7-hydroxyfrullanolide (1) or different natural analogs (structure numbers 3 to 11) or semi-synthetic analogs (structure numbers 12 to 25) of 7-HF. The cells were maintained in the medium for another 3-5 days. The cells incubated with 0.1% DMSO were considered as the vehicle control. After the incubation period, cells were washed with phosphate buffered saline (PBS) and fixed with 10% buffered formalin for 1 h at room temperature. One small aliquot of cell suspension was separated for cell counting in hemocytometer chamber. Fixed cells were stained with Oil Red O solution to measure the cellular neutral lipid accumulation. Briefly, cells were washed with PBS, fixed with 10% buffered formalin and stained with Oil Red O solution (0.5 g in 100 ml isopropanol) for […]. After removing the staining solution, the dye retained in the cells will be eluted into isopropanol and OD measured at 550 nm. The inhibition of fat accumulation in the treated cells was compared with the mock treated differentiated adipocytes. The treated and control cells were also analyzed and compared for inhibition of lipid accumulation visually under microscope and recorded digitally in suitable image capture system. The anti-adipogenic activity by 7-HF is depicted in Figure I and the percentage inhibition of lipid accumulation shown by 7-HF and its natural and semi-synthetic analogs is summarized in Table-1.

[2] = system: 3T3-L1 pre-adipocyte cells; assay: Pro-lipolytic activity in differentiated adipocytes (free glycerol release); assay type: cell-based, mouse; settings: increase in glycerol release
Method: The lipolytic activity was assessed in mature adipocytes as per the procedure of Chemicon International, USA, by measuring free glycerol secreted into the culture medium. One hundred thousand 3T3-L1 […] pre-adipocyte cells in Dulbecco's Modified Eagles Medium (DMEM) containing 10% Fetal Bovine Serum (FBS) were taken into each well of a 24-well plate and incubated for 48 h at 37° C. and 5% CO2. The differentiation of pre-adipocyte cells was initiated in a differentiation medium containing 10 µg/ml insulin, 1.0 µM dexamethasone, and 0.5 mM isobutylmethylxanthine (IBMX). The cells were differentiated for 5 days and then the culture medium was removed. The monolayer was washed twice with wash solution (Hank's balanced salt solution), and then 250 µL of incubation solution (Hank's balanced salt solution plus 2% bovine serum albumin) was added to the wells in triplicate in presence or absence of 7-hydroxyfrullanolide or its analogs or the extracts containing 7-HF, and the cells were further incubated for 16 h. To measure lipolysis, 200 μL of free glycerol assay reagent was added to 25 µL of culture supernatants and controls containing glycerol standard. The samples and the controls were incubated for 15 min, and the absorbance was read at 540 nm. A standard curve constructed from the glycerol was used to calculate the concentration of free glycerol in the culture supernatants. The percentage increase in glycerol concentration in the sample solutions compared to the control containing the known concentrations of glycerol corresponds to the percentage acceleration of lipolysis by test compound.

Piperazine Bis-7-hydroxyfrullanolide [Compound-23]
% inhibition of lipid accumulation ([1]; 1.0 μg/mL): 15.2%

CC1(O)CCC[C@]2(C)CCC3=C(CN4CCCCC4)C(=O)OC3=C12 (stereo partly drawn) [Compound-20, (5aR)-5,5a,6,7,8,9-hexahydro-9-hydroxy-5a,9-dimethyl-3-((piperidin-1-yl)methyl)naphtho[1,2-b]furan-2(4H)-one]
inhibition at 2 µg/mL ([1]; Homo sapiens, 2.0 μg/mL): 7%

CC1=C2[C@@H]3OC(=O)C(CN4CCNCC4)[C@]3(O)CC[C@@]2(C)CCC1 (stereo partly drawn) [Compound-22, (3aR,5aR,9bS)-3,3a,4,5,5a,6,7,8-octahydro-3a-hydroxy-5a,9-dimethyl-3-((piperazin-1-yl)methyl)naphtho[1,2-b]furan-2(9bH)-one]
inhibition at 1 µg/mL ([1]; Homo sapiens, 1.0 μg/mL): 15%

CC1=CCC[C@]2(C)CCC3=C(CBr)C(=O)OC3=C12 [Compound-14, (R)-3-(bromomethyl)-5,5a,6,7-tetrahydro-5a,9-dimethylnaphtho[1,2-b]furan-2(4H)-one]
inhibition at 2 µg/mL ([1]; Homo sapiens, 2.0 μg/mL): 14%

C=C1C(=O)O[C@H]2C3=C(C)C(=O)CC[C@]3(C)CC[C@@]12O [Compound-11, (3aR,5aS,9bS)-3a,4,5,5a,6,7-hexahydro-3a-hydroxy-5a,9-dimethyl-3-methylenenaphtho[1,2-b]furan-2,8(3H,9bH)-dione]
inhibition at 2 µg/mL ([1]; Homo sapiens, 2.0 μg/mL): 8%

C=C1C(=O)OC2C1(O)CCC1(C)CCCC3(C)OC213 (centres unmarked) [Compound-13, 4,5-epoxy-7-hydroxyfrullanolide]
% inhibition of lipid accumulation ([1]; 2.0 μg/mL): 79.7% | % acceleration of lipolysis ([2]; 5 μg/mL): 52.8%

C=C1C(=O)OC2C3=C(C)CCCC3(C)CCC12 (centres unmarked) [Compound-1, 3,3a,4,5,5a,6,7,8-octahydro-5a,9-dimethyl-3-methylenenaphtho[1,2-b]furan-2(9bH)-one]
inhibition at 2.5 µg/mL ([1]; Homo sapiens): 19.4% | % acceleration of lipolysis ([2]; 10 μg/mL): 44.6%

CC1=C2[C@@H]3OC(=O)C(CN4CCOCC4)[C@]3(O)CC[C@@]2(C)CCC1 (stereo partly drawn) [Compound-17, (3aR,5aR,9bS)-3,3a,4,5,5a,6,7,8-octahydro-3a-hydroxy-5a,9-dimethyl-3-(morpholinomethyl)naphtho[1,2-b]furan-2(9bH)-one]
inhibition at 2 µg/mL ([1]; Homo sapiens, 2.0 μg/mL): 36.2%

C=C1C(=O)O[C@H]2C3=C(C)C(O)CC[C@]3(C)CC[C@@]12O (stereo partly drawn) [Compound-10, (3aR,5aR,9bS)-3,3a,4,5,5a,6,7,8-octahydro-3a,8-dihydroxy-5a,9-dimethyl-3-methylenenaphtho[1,2-b]furan-2(9bH)-one]
inhibition at 2 µg/mL ([1]; Homo sapiens, 2.0 μg/mL): 45%

C=C1C(=O)O[C@@H]2[C@@]1(O)CC[C@@]1(C)CCCC(=C)[C@]21OO [Compound-3, (3aR,5aR,9aR,9bR)-decahydro-9a-hydroperoxy-3a-hydroxy-5a-methyl-3,9-dimethylenenaphtho[1,2-b]furan-2(9bH)-one]
inhibition at 2.5 µg/mL ([1]; Homo sapiens): 40.5% | % acceleration of lipolysis ([2]; 5 μg/mL): 39.6%

CC1=C2[C@@H]3OC(=O)C(CN4CCCCC4)[C@]3(O)CC[C@@]2(C)CCC1 (stereo partly drawn) [Compound-19, (3aR,5aR,9bS)-3,3a,4,5,5a,6,7,8-octahydro-3a-hydroxy-5a,9-dimethyl-3-((piperidin-1-yl)methyl)naphtho[1,2-b]furan-2(9bH)-one]
inhibition at 2 µg/mL ([1]; Homo sapiens, 2.0 μg/mL): 23.3%

CC1=C2[C@@H]3OC(=O)C(CN4CCOCC4)[C@]3(O)CC[C@@]2(C)CCC1O (stereo partly drawn) [Compound-18, (3aR,5aR,9bS)-3,3a,4,5,5a,6,7,8-octahydro-3a,8-dihydroxy-5a,9-dimethyl-3-(morpholinomethyl)naphtho[1,2-b]furan-2(9bH)-one]
inhibition at 2.5 µg/mL ([1]; Homo sapiens): 133%

CC1=CCC[C@]2(C)CCC3=C(C=O)C(=O)OC3=C12 [Compound-12, (R)-2,4,5,5a,6,7-hexahydro-5a,9-dimethyl-2-oxonaphtho[1,2-b]furan-3-carbaldehyde]
inhibition at 2 µg/mL ([1]; Homo sapiens, 2.0 μg/mL): 55% | % acceleration of lipolysis ([2]; 5 μg/mL): 45.2%
